Experimental data taken from ChEMBL document CHEMBL3244332, “Studies on quinoline derivatives and related compounds. 5. Synthesis and antimicrobial activity of novel 1-alkoxy-1,4-dihydro-4-oxo-3-quinolinecarboxylic acids” (J Med Chem, 1977).
In brackets after ≈: the same amount, converted by molar mass.

Key:
[1] = tested on: Staphylococcus aureus; assay: microbe, parasite or virus in culture; type: functional; details: 209P, 24 h
Description: Antibacterial activity against Staphylococcus aureus 209P after 24 hrs by twofold dilution assay

[2] = tested on: Escherichia coli; assay: Antibacterial activity against Escherichia coli NIHJ after 24 hrs by twofold dilution assay; type: functional
[3] = tested on: Proteus mirabilis; assay: microbe, parasite or virus in culture; type: functional; details: GN 2425, 24 h
Description: Antibacterial activity against Proteus mirabilis GN 2425 after 24 hrs by twofold dilution assay

[4] = tested on: Pseudomonas aeruginosa; assay: microbe, parasite or virus in culture; type: functional; details: Pseudomonas aeruginosa, 104, 24 h
Description: Antibacterial activity against Pseudomonas aeruginosa 104 after 24 hrs by twofold dilution assay

[5] = tested on: Klebsiella pneumoniae; assay: microbe, parasite or virus in culture; type: functional; details: PCI-602, 24 h
Description: Antibacterial activity against Klebsiella pneumoniae PCI-602 after 24 hrs by twofold dilution assay

[6] = Drug recovery in Wistar rat urine at 50 mg/kg, po measured over 24 hrs
[7] = Drug level in Wistar rat serum at 50 mg/kg, po measured at 0.5 hr
[8] = Drug level in Wistar rat serum at 50 mg/kg, po measured at 1 hr
[9] = Drug level in Wistar rat serum at 50 mg/kg, po measured at 2 hrs
[10] = Drug level in Wistar rat serum at 50 mg/kg, po measured at 4 hrs
[11] = Drug level in Wistar rat serum at 50 mg/kg, po measured at 6 hrs; type: ADME, organism-based; design: dose 50 mg/kg, route oral; details: read-out: Drug uptake
[12] = tested on: Escherichia coli; assay: Antibacterial activity against Escherichia coli 0111 infected in ICR mouse administered orally 0.5 hr and 6 hrs post infection measured 1 week post challenge; type: functional; details: Escherichia coli, 0111, po
[13] = tested on: Proteus mirabilis; assay: Antibacterial activity against Proteus mirabilis GN2425 infected in ICR mouse administered orally 0.5 hr and 6 hrs post infection measured 1 week post challenge; type: functional; details: GN2425, po

Compound	MIC [1] [µg/mL]	MIC [2] [µg/mL]	MIC [3] [µg/mL]	MIC [4] [µg/mL]	MIC [5] [µg/mL]	dose excreted at 24 h [6] [%]	concentration at 0.5 h [7] [ng/mL]	concentration at 1 h [8] [ng/mL]	concentration at 2 h [9] [ng/mL]	concentration at 4 h [10] [ng/mL]	concentration at 6 h [11] [ng/mL]	ED50 [12] [mg/kg]	ED50 [13] [mg/kg]
C=CCOn1cc(C(=O)O)c(=O)c2cc3c(cc21)OCO3	12.5 (≈ 43.2 µM)	6.25 (≈ 21.6 µM)	50 (≈ 173 µM)	200 (≈ 691 µM)	3.13 (≈ 10.8 µM)								
CCCOn1cc(C(=O)O)c(=O)c2cc3c(cc21)OCO3	50 (≈ 172 µM)	100 (≈ 343 µM)	200 (≈ 687 µM)	100 (≈ 343 µM)	> 200								
COn1cc(C(=O)O)c(=O)c2c3c(ccc21)OCOC3	25 (≈ 90.2 µM)	12.5 (≈ 45.1 µM)	200 (≈ 721 µM)	> 200	12.5 (≈ 45.1 µM)								
CCn1cc(C(=O)O)c(=O)c2cc3c(cc21)OCO3 [OXOLINIC ACID]	3.13 (≈ 12 µM)	0.39 (≈ 1.49 µM)	0.39 (≈ 1.49 µM)	6.25 (≈ 23.9 µM)	0.78 (≈ 2.99 µM)	2.4	700	1500	4700	4800	2700	20	48
CCn1cc(C(=O)O)c(=O)c2c3c(ccc21)OCOC3	3.13 (≈ 11.4 µM)	6.25 (≈ 22.7 µM)	12.5 (≈ 45.4 µM)	> 200									
O=C(O)c1cn(OCC2CC2)c2cc3c(cc2c1=O)OCO3	50 (≈ 165 µM)	50 (≈ 165 µM)	100 (≈ 330 µM)	> 200	> 200								
COn1cc(C(=O)O)c(=O)c2cc3c(cc21)OCO3 [MILOXACIN]	6.25 (≈ 23.7 µM)	0.39 (≈ 1.48 µM)	0.39 (≈ 1.48 µM)	12.5 (≈ 47.5 µM)	0.39 (≈ 1.48 µM)	7.5	11600	27800	22300	19500	1500	7.2	30
O=C(O)c1cn(OCCO)c2cc3c(cc2c1=O)OCO3	100 (≈ 341 µM)	100 (≈ 341 µM)	100 (≈ 341 µM)	100 (≈ 341 µM)	> 200								

Second part, led by results:

MIC [1] [µg/mL]	MIC [2] [µg/mL]	MIC [3] [µg/mL]	MIC [4] [µg/mL]	MIC [5] [µg/mL]	dose excreted at 24 h [6] [%]	concentration at 0.5 h [7] [ng/mL]	concentration at 1 h [8] [ng/mL]	concentration at 2 h [9] [ng/mL]	concentration at 4 h [10] [ng/mL]	concentration at 6 h [11] [ng/mL]	Compound	ED50 [12] [mg/kg]	ED50 [13] [mg/kg]
25 (≈ 90.2 µM)	3.13 (≈ 11.3 µM)	50 (≈ 180 µM)	100 (≈ 361 µM)	1.56 (≈ 5.63 µM)							CCOn1cc(C(=O)O)c(=O)c2cc3c(cc21)OCO3		
25 (≈ 96.4 µM)	12.5 (≈ 48.2 µM)	50 (≈ 193 µM)	> 200	3.13 (≈ 12.1 µM)							COn1cc(C(=O)O)c(=O)c2ccc3c(c21)CCC3		
50 (≈ 191 µM)	100 (≈ 383 µM)	> 200	> 200	50 (≈ 191 µM)							COn1cc(C(=O)O)c(=O)c2c3c(ccc21)OCC3		
6.25 (≈ 20.4 µM)	0.2 (≈ 0.653 µM)	0.39 (≈ 1.27 µM)	12.5 (≈ 40.8 µM)	0.2 (≈ 0.653 µM)	1.8	2900	4500	3700	1900		COn1cc(C(=O)O)c(=O)c2c3sc(=O)n(C)c3ccc21		
50 (≈ 140 µM)	100 (≈ 279 µM)	> 200	> 200	200 (≈ 558 µM)							C=CCOn1cc(C(=O)O)c(=O)c2c3sc(=O)n(CC=C)c3ccc21		
> 50	> 200	> 200	> 200	> 200							C=CCOn1cc(C(=O)O)c(=O)c2c3c(ccc21)OCOC3		
3.13 (≈ 10.3 µM)	0.1 (≈ 0.329 µM)	0.39 (≈ 1.28 µM)	> 200	0.2 (≈ 0.657 µM)	0.3	300	360	320	450	360	CCn1cc(C(=O)O)c(=O)c2c3sc(=O)n(C)c3ccc21 [TIOXACIN]		
6.25 (≈ 23.9 µM)	0.78 (≈ 2.99 µM)	0.39 (≈ 1.49 µM)	12.5 (≈ 47.9 µM)	0.2 (≈ 0.766 µM)	11	6200	4700	4000	1700		COn1cc(C(=O)O)c(=O)c2cc3c(cc21)CCO3		
> 1.56	> 200	> 200	> 200	> 200							O=C(O)c1cn(OCc2ccccc2)c2ccc3c(sc(=O)n3Cc3ccccc3)c2c1=O		
25 (≈ 85.8 µM)	6.25 (≈ 21.5 µM)	50 (≈ 172 µM)	200 (≈ 687 µM)	3.13 (≈ 10.7 µM)							CC(C)On1cc(C(=O)O)c(=O)c2cc3c(cc21)OCO3		
3.13 (≈ 12.2 µM)	1.56 (≈ 6.06 µM)	6.25 (≈ 24.3 µM)	50 (≈ 194 µM)	0.39 (≈ 1.52 µM)							CCn1cc(C(=O)O)c(=O)c2ccc3c(c21)CCC3		
